Measured values published in patent publication US9540427B2, “Peptide-based stat inhibitor” (The United States of America, as represented by the …, priority 2007, dated 2017).
Square brackets hold non-standard residues; d marks the D form. Ends that are not written are not given here. Peptide text beside a SMILES is read from it. * marks the point of attachment. Phe(4-CN) = N#Cc1ccc(C[C@H](N)C(=O)O)cc1; Palmitoyl = CCCCCCCCCCCCCCCC(=O)*; rhodamine = not defined here; Nle = CCCC[C@H](N)C(=O)O; Dab = NCC[C@H](N)C(=O)O

Experiments:
MCF7 breast cancer cells = assay: MTT assay of growth inhibition / cytotoxicity in MCF7 cells; type: cell-based, human; details: for Cell growth, % of control: 5 μM, MTT assay 48 hours after exposure
Method: Activity was determined by MTT assay 48 hours after exposure of the MCF7 cells to the test compounds.
Peptides were constructed based on variations of the amino acid sequence of the second helix of STAT1 and STAT5a. ε-palmitoyl lysine was substituted for penetratin as a cell-penetrating motif Several residues of penetratin sequence were preserved in the lipopeptide derivatives, which served as a linking sequence. The peptides and peptidomimetics were tested for growth inhibitory and cytotoxic activity in MCF7 cells using an MTT assay as described in Example 2.
Retro-inverso peptide analogues were prepared comprising variants of the sequence of helix 2 of STAT3. STAT3-Hel2A-2 (see Example 3) was used as a starting sequence, in which all but three residues of the original penetratin sequence was replaced with palmitic acid. The variants were produced by systematically truncating and substituting the base sequence. The compounds were used to treat MCF7 breast cancer cells. IC50 values were determined 48 hours after exposing the cells to the test compounds.

STAT3 signaling = assay: Luciferase reporter assay (Mercury JAK-STAT Pathway Profiling system, GAS or STAT3 elements) in MCF-7 cells; type: cell-based, human; design: concentration or dose not given beside the values; details: luciferase reporter with GAS or STAT3 elements, basal expression, within one hour after treatment
Method: Selected peptides were tested for inhibition of STAT3 signaling in breast cancer cell lines by luciferase reporter assay. The assay employed the Mercury JAK-STAT Pathway Profiling system (Clontech), which includes the enhancer elements GAS (interferon-γ activating sequence) or STAT3 (a modified GAS sequence) introduced as three tandem copies upstream of the TA promoter in a luciferase reporter vector. STAT3 helix 2 analogs reduced basal expression of the reporter construct containing the GAS, or STAT3 elements in MCF-7 cells within one hour after treatment.

[1] = test system: STAT3-dependent transcription (APRE reporter); assay: APRE luciferase reporter in MCF-7 cells activated by LIF; type: cell-based, human; details: basal and LIF-stimulated
Excerpt: (§1) To evaluate effects of inhibitors on cytokine-activated transcription, luciferase reporter vectors APRE and ISRE were employed (Takeda et al., J. Endocrinol. 159, 323-330 (1998); Ivanova et al., J. Mol. Biol. 340, 641-653 (2004)). APRE was activated in MCF-7 cells by LIF.

[2] = test system: STAT1-dependent transcription (ISRE reporter); assay: ISRE luciferase reporter in MCF-7 cells activated by IFN-γ; type: cell-based, human; details: IFN-γ-stimulated
Excerpt: as §1

STAT1 = biological target: T1, STAT1 (Homo sapiens, UniProt P42224); assay: STAT1 tyrosine phosphorylation and expression in cytokine-treated breast cancer cells; type: cell-based; details: pretreatment 1 hour
T1 construct: endogenous in cells; host or cells: MCF-7 and MDA-MB-231
T1 sequence (P42224 1-750): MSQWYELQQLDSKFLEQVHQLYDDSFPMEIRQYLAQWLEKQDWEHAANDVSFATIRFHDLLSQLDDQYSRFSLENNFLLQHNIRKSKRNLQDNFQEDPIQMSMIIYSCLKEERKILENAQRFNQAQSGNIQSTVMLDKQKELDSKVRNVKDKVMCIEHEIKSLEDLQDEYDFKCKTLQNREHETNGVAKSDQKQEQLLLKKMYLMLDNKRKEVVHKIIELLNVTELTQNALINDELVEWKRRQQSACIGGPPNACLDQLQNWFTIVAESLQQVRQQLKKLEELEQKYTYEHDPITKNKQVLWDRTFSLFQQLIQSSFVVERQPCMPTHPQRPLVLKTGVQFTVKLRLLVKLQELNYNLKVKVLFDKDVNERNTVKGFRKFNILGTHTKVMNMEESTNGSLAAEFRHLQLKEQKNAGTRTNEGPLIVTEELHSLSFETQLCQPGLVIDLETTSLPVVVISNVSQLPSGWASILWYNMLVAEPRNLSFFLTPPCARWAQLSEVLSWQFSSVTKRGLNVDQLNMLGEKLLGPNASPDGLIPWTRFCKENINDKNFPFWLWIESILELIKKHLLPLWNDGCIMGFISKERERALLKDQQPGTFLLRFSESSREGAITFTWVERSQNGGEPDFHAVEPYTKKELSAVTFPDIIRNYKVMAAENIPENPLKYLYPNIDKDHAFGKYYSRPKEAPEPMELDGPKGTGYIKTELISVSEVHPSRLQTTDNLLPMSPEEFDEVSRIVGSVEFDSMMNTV
Method: (§2) MCF-7 and MDA-MB-231 cells were treated with Leukemia Inhibitory Factor (LIF) to activate STAT3 and with Interferon gamma (IFN-γ) to activate STAT1 signaling. In MCF-7 cells, LIF induced selective STAT3 tyrosine phosphorylation and IFN-γ induced selective STAT1 tyrosine phosphorylation. In MDA-MB-231 cells, however, each cytokine induced both STAT3 and STAT1 tyrosine phosphorylation.

STAT3 = biological target: T2, STAT3 (Homo sapiens, UniProt P40763); assay: STAT3 tyrosine phosphorylation and expression in cytokine-treated breast cancer cells; type: cell-based; details: pretreatment 1 hour
T2 construct: endogenous in cells; host or cells: MCF-7 and MDA-MB-231
Method: as §2

[3] = biological target: T3, STAT3 tagged with eGFP (eGFP-STAT3) (Homo sapiens, UniProt P40763); assay: FRET in living cells expressing eGFP-STAT3; type: binding; details: HEK293 cells stably expressing eGFP-STAT3, 5 μM, one hour
T3 construct: expressed in transfected cells; host or cells: HEK293
Method: Fluorescence Resonance Energy Transfer (FRET) method was used to determine whether STAT3-HEL2A-2 (see Example 3) interacts with STAT3 in living cells. HEK293 cells stably expressing STAT3 tagged with eGFP on its N-terminus (eGFP-STAT3) were treated for one hour with 5 μM of STAT3-HEL2A-2 labeled with rhodamine. An additional cysteine residue was positioned at the C-terminus of penetratin to facilitate labeling. Excitation of eGFP (donor) was facilitated using a 488-nm light source, and the emission spectrum was detected. In the absence of energy transfer between eGFP and rhodamine, excitation of eGFP would lead to an emission peak at 520-540 nm, whereas energy transfer from eGFP to an adjacent rhodamine fluorochrome acceptor would cause an emission in the 560-600 nm range. […] The photobleaching of rhodamine restored the fluorescence of eGFP.
Cells expressing eGFP-STAT3, eGFP-STAT1, or eGFP were treated with rhodamine-labeled STAT3-HEL2A-2 (see Example 6). Excitation of eGFP was facilitated, and the emission spectrum detected, in accordance with the methods described in Example 6. FRET efficiency was calculated using equation 1-D0/D1, where D0 is fluorescence intensity of eGFP before rhodamine photobleaching and D1 is the intensity after rhodamine photobleaching.

[4] = MCF-7 and MDA-MB-231 cells treated with LIF or IFN-γ

T2 sequence (P40763 whole entry): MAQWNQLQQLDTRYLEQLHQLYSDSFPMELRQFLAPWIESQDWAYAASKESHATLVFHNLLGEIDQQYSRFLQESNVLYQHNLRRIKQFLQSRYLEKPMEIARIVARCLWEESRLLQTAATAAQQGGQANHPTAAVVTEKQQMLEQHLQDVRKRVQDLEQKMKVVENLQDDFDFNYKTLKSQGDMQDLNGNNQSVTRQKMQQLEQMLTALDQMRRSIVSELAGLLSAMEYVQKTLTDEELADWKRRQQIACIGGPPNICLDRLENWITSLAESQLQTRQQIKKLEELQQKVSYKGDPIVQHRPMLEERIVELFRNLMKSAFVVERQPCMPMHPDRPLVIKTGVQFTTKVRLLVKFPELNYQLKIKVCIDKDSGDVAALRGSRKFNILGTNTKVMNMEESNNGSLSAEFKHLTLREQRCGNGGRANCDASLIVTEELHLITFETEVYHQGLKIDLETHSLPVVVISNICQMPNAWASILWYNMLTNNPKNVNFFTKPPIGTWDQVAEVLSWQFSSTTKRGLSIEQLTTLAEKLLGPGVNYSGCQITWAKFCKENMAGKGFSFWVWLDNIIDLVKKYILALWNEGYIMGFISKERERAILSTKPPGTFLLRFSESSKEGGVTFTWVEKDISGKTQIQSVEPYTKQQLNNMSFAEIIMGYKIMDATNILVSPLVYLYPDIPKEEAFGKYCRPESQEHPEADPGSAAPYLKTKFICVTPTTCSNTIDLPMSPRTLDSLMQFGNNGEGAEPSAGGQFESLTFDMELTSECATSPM
T3 sequence (P40763 whole entry): as above

## CCCCCCCCCCCCCCCC(=O)N[C@H](CCCCN)C(=O)N[C@H](Cc1ccc(O)cc1)C(=O)N[C@H](CC(C)C)C(=O)N[C@H](CCCCN)C(=O)N[C@H](Cc1c[nH]cn1)C(=O)N[C@H](CC(C)C)C(=O)N[C@H](CCC(N)=O)C(=O)N[C@H](CCC(=O)O)C(=O)N[C@H](CC(C)C)C(=O)N[C@H](Cc1ccc(O)cc1)C(=O)N[C@H](CCCNC(=N)N)C(=O)N[C@@H](C(=O)N[C@H](CC(=O)O)C(N)=O)[C@H](C)O [St3-H2a-2a-Pa17] (Palmitoyl-[dK][dY][dL][dK][dH][dL][dQ][dE][dL][dY][dR][dT][dD]-NH2; C-terminus assumed)
MCF7 breast cancer cells; read-out: IC50 (concentration causing 50% growth inhibition), 48 hours after exposure, Table 8
  IC50: 1.8 µM

## Ac-ATRYLEQLHKLY (Ac-ATRYLEQLHKLY-penetratin; also: penetratin fused C-terminally) [Hel2A-5-Pen, penetratin fused to the C-terminus]
MCF7 breast cancer cells
  Cell growth, % of control: 85 ± 5%

## Ac-DTRYLEQLHALY (Ac-DTRYLEQLHALY-penetratin; also: penetratin fused C-terminally) [Hel2A-3-Pen, penetratin fused to the C-terminus]
MCF7 breast cancer cells
  Cell growth, % of control: 93 ± 6%
STAT3 signaling
  Activity, % of control: 89 ± 9%

## Ac-DTRYLEQLHELY (Ac-DTRYLEQLHELY-penetratin; also: penetratin fused C-terminally) [Hel2A-4-Pen, penetratin fused to the C-terminus]
MCF7 breast cancer cells
  Cell growth, % of control: 91 ± 6%

## Ac-DTRYLEQLHKLY (Ac-DTRYLEQLHKLY-penetratin; also: penetratin fused C-terminally) [Ac-Hel2A-2a-Pen, penetratin fused to the C-terminus]
MCF7 breast cancer cells
  Cell growth, % of control: 45 ± 5%

## DSKFLEQVHKLY-penetratin [STAT1-Hel2A-2]
[1]
  Effect on APRE reporter expression: inhibited both basal and stimulated expression
[2]
  Effect on ISRE reporter activation: prevented cytokine-stimulated reporter activation
STAT1; MCF-7 and MDA-MB-231 cells
  Effect on expression level of STAT1 protein: did not change
STAT1; [4]
  Effect on tyrosine phosphorylation of STAT1: did not affect
STAT3; MCF-7 and MDA-MB-231 cells
  Effect on expression level of STAT3 protein: did not change
STAT3; [4]
  Effect on tyrosine phosphorylation of STAT3: did not affect

## DTKYLEQLHKLYS (DTKYLEQLHKLYS-penetratin) [Hel2D-Pen, penetratin fused to the C-terminus]
MCF7 breast cancer cells
  Cell growth, % of control: 42 ± 4%

## DTRYLEQLHDabLY (DTRYLEQLH[Dab]LY; also: penetratin fused C-terminally) [Hel2I-Pen, penetratin fused to the C-terminus]
MCF7 breast cancer cells
  Cell growth, % of control: 25 ± 4%
STAT3 signaling
  Activity, % of control: 53 ± 6%

## DTRYLEQLHDabLYS (DTRYLEQLH[Dab]LYS; also: penetratin fused C-terminally) [Hel2F-Pen, penetratin fused to the C-terminus]
MCF7 breast cancer cells
  Cell growth, % of control: 60 ± 5%

## DTRYLEQLHKLCyPheS (DTRYLEQLHKL[Phe(4-CN)]S; also: penetratin fused C-terminally) [Hel2C-Pen, CyPhe is 4-cyano phenylalanine; penetratin fused to the C-terminus]
MCF7 breast cancer cells
  Cell growth, % of control: 38 ± 4%

## DTRYLEQLHKLY (DTRYLEQLHKLY-penetratin) [Hel2A-2a-Pen, penetratin fused to the C-terminus]
MCF7 breast cancer cells
  Cell growth, % of control: 65 ± 5%

## DTRYLEQLHKLYS (DTRYLEQLHKLYS-penetratin) [Hel2A-Pen, penetratin fused to the C-terminus]
MCF7 breast cancer cells
  Cell growth, % of control: 44 ± 5%
STAT3 signaling
  Activity, % of control: 100 ± 9%

## DTRYLQELHKLYS (DTRYLQELHKLYS-penetratin) [Hel2E-Pen, penetratin fused to the C-terminus]
MCF7 breast cancer cells
  Cell growth, % of control: 46 ± 4%

## LDTKYLEQLHDabLY (LDTKYLEQLH[Dab]LY; also: penetratin fused C-terminally) [Hel2K-Pen, penetratin fused to the C-terminus]
MCF7 breast cancer cells
  Cell growth, % of control: 8 ± 2%

## LDTRYLEQLHDabLY (LDTRYLEQLH[Dab]LY; also: penetratin fused C-terminally) [Hel2H-Pen, penetratin fused to the C-terminus]
MCF7 breast cancer cells
  Cell growth, % of control: 45 ± 4%
STAT3 signaling
  Activity, % of control: 43 ± 4%

## LDTRYLEQLHKLYS (LDTRYLEQLHKLYS-penetratin) [Hel2B-Pen, penetratin fused to the C-terminus]
MCF7 breast cancer cells
  Cell growth, % of control: 82 ± 6%
STAT3 signaling
  Activity, % of control: 100 ± 9%

## LDTRYLEQLHQLYS (LDTRYLEQLHQLYS-penetratin) [Hel2-Pen]
MCF7 breast cancer cells
  Cell growth, % of control: 73 ± 5%
STAT3 signaling
  Activity, % of control: 56 ± 5%

## rhodamine-labeled STAT3-HEL2A-2: STAT3-HEL2A-2 labeled with rhodamine via an additional cysteine residue at the C-terminus of penetratin (LDTRYLEQLHKLYRQIKIWFPNRR[Nle]KWKKC(rhodamine); reading uncertain)
[3]
  Quenching of the normal fluorescence of eGFP: 90%
